Experimental data published in publication PMC5831858, “Pharmacological characterisation of CR6086, a potent prostaglandin E2 receptor 4 antagonist, as a new potential disease-modifying anti-rheumatic drug” (Arthritis Research & Therapy, 2018).
Read-outs that look alike come from different tables or passages of the source.

Legend:
[1] = CR6086 pharmacokinetics in rats; format: in vivo, rat; settings: for Cmax / AUC / Tmax: rat, plasma, oral; for AUC: read-out: AUC24; for Tmax: median
Method: (§1) CR6086 concentrations in rat plasma were determined by high-performance liquid chromatography (Agilent 1200 series; Agilent Technologies, Santa Clara, CA, USA) coupled with a triple-quadrupole mass spectrometer (API 4000 QTRAP; SCIEX, Concord, ON, Canada). A ZORBAX SB-C18 2.0 × 50-mm, 3.5-μm column (Agilent Technologies) in isocratic conditions was used with mobile phase 0.1% formic acid in water/acetonitrile (68:32 vol/vol). The method was linear within the dynamic range 1.0–10,000 ng/ml (lower to upper limit of quantification). CR6086 plasma protein binding was determined in the 0.2–200 μM concentration range using [^14C]CR6086 and equilibrium dialysis. EP4 receptor occupancy (RO) was calculated on the basis of CR6086 concentrations according to the following formula: RO%=Cave/Cave+Ki×100,
The pharmacokinetics of CR6086 were investigated in the animal species used as rheumatoid arthritis models, employing the same administration route and dose range. […] Therefore, for ethical reasons, all pharmacokinetic experiments were conducted in naive animals.

[2] = Plasma protein binding (equilibrium dialysis, [^14C]CR6086); format: in vitro ADME; settings: rat, 0.2–200 μM, read-out: unbound fraction (fu)
Method: as §1

[3] = system: arthritic mice (collagen-induced arthritis model); assay: Serum anti-bCII IgG antibodies (ELISA), CIA mice third study; format: in vivo, mouse; settings: 30 mg/kg CR6086, end of treatment
Method: In a third study, mice were randomised into the following treatment groups: naive, vehicle, 30 mg/kg CR6086, 1 or 3 mg/kg MTX, with the latter administered alone or in combination with 30 mg/kg CR6086. CR6086 was administered orally once daily. MTX was administered intraperitoneally three times per week (every third day). Mice were treated with test drugs for 16 days.
At the end of the treatment period, animals were killed, and their paws were explanted and processed for histology. In the third study, the serum concentrations of immunoglobulin G (IgG) antibodies against bCII were measured by ELISA (catalogue number 2032; Chondrex, Redmond, WA, USA).

[4] = target: T1, EP1 (Homo sapiens, UniProt P34995); assay: Eicosanoid receptor EP1 binding; settings: [^3H]PGE2, HEK-293 cells, read-out: CR6086 Activity at 10µM
T1 construct: host or cells: HEK-293 cells
T1 sequence (P34995 whole entry): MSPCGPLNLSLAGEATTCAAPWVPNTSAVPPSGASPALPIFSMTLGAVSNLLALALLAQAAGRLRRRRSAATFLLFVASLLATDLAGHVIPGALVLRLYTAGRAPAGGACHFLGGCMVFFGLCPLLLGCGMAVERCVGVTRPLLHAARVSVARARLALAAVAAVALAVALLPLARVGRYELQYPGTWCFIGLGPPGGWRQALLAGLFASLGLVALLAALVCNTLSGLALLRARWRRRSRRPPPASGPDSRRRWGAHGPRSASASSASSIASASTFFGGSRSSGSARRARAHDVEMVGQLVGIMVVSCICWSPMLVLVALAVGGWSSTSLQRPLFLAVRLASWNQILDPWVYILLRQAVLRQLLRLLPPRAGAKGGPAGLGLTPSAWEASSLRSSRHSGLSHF

[5] = target: TP (TXA2/PGH2) (Homo sapiens, UniProt P21731); assay: Eicosanoid receptor TP binding; settings: [^3H]SQ 29548, HEK-293 cells, read-out: CR6086 Activity at 10µM
TP (TXA2/PGH2), sequence (P21731 whole entry): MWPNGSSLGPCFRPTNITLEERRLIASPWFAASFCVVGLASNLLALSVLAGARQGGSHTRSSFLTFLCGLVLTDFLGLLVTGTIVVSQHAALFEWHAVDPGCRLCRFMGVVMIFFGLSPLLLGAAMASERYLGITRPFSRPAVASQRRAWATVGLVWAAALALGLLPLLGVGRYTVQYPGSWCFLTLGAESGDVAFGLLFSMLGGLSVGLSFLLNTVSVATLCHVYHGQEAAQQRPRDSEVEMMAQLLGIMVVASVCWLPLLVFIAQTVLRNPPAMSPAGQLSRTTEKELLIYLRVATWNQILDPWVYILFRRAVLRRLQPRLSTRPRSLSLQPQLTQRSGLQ

[6] = system: BZD (central); assay: Benzodiazepine receptor (central) binding; settings: [^3H]flunitrazepam, Rat cerebral cortex
[7] = target: D5 (Homo sapiens, UniProt P21918); assay: Dopamine receptor D5 binding; settings: [^3H]SCH 23390, Human recombinant GH4 cells, read-out: CR6086 Activity at 10µM
D5, sequence (P21918 whole entry): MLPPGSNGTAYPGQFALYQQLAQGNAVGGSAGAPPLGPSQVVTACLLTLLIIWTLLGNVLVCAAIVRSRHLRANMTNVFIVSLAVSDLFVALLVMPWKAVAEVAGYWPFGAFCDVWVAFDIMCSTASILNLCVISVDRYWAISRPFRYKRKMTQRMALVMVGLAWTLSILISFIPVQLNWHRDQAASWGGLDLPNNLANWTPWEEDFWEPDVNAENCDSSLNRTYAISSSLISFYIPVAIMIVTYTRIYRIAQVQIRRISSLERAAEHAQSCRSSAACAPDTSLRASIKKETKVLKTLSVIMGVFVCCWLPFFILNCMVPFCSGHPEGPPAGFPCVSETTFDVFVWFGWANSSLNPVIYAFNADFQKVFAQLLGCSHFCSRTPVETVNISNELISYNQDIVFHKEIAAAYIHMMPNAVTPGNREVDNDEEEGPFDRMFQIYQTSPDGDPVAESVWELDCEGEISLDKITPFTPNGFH

[8] = target: 5-HT2A (Homo sapiens, UniProt P28223); assay: Serotonin receptor 5-HT2A binding; settings: [^3H]ketanserin, Human recombinant HEK-293 cells, read-out: CR6086 Activity at 10µM
5-HT2A, sequence (P28223 whole entry): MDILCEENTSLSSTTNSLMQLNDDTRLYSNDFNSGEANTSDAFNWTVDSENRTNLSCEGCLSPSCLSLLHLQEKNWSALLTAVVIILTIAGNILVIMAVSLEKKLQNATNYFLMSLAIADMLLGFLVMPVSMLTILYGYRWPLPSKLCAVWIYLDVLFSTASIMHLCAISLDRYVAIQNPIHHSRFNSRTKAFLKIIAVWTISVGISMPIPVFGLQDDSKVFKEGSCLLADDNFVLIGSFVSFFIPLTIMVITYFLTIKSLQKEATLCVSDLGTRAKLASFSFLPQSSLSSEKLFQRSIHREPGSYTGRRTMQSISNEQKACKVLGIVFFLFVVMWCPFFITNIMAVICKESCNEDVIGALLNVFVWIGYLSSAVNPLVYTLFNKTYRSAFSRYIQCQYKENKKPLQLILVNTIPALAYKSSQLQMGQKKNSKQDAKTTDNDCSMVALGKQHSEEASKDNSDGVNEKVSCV

[9] = target: 5-HT2C (Homo sapiens, UniProt P28335); assay: Serotonin receptor 5-HT2C binding; settings: [^3H]mesulergine, Human recombinant HEK-293 cells, read-out: CR6086 Activity at 10µM
5-HT2C, sequence (P28335 33-458): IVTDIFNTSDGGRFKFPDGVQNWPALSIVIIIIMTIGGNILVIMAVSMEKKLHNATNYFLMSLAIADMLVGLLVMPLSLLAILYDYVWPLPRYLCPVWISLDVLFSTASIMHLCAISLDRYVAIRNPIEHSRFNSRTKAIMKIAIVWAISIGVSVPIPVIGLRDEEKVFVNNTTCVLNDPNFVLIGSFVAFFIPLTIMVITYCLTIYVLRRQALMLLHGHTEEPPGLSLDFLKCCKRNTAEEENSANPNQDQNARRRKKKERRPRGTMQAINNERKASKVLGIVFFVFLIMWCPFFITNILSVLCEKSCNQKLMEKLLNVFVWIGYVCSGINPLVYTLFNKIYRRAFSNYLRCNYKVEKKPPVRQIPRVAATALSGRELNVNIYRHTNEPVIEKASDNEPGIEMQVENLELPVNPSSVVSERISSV

[10] = target: 5-HT6 (Homo sapiens, UniProt P50406); assay: Serotonin receptor 5-HT6 binding; settings: [^3H]LSD, Human recombinant CHO cells, read-out: CR6086 Activity at 10µM
5-HT6, sequence (P50406 whole entry): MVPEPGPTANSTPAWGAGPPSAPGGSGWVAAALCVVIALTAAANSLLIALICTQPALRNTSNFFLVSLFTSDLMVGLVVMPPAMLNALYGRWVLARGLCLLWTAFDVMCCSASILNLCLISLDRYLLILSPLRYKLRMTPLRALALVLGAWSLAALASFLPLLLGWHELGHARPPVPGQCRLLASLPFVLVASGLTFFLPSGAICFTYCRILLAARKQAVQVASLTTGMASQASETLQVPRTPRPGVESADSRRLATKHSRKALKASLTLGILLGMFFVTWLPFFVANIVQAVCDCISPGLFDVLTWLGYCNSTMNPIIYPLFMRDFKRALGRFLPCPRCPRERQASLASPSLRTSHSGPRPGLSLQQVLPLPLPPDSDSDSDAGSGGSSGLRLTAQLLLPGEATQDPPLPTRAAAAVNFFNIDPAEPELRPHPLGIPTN

[11] = target: 5-HT7 (Homo sapiens, UniProt P34969); assay: Serotonin receptor 5-HT7 binding; settings: [^3H]LSD, Human recombinant CHO cells, read-out: CR6086 Activity at 10µM
5-HT7, sequence (P34969 whole entry): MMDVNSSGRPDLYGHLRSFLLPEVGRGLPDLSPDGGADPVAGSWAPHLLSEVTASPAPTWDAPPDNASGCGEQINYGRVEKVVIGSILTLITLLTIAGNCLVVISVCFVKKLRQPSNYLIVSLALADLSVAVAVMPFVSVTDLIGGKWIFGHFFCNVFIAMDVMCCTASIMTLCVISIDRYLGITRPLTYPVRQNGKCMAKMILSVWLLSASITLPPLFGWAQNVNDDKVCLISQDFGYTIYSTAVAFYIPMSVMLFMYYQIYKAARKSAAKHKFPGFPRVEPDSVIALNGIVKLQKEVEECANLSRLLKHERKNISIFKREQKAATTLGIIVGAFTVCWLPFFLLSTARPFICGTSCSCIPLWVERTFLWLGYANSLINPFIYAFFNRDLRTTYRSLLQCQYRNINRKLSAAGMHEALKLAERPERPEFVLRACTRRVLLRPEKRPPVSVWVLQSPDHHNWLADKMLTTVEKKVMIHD

[12] = target: H2 (Homo sapiens, UniProt P25021); assay: Histamine receptor H2 binding; settings: [^125I]APT, Human recombinant CHO cells, read-out: CR6086 Activity at 10µM
H2, sequence (P25021 whole entry): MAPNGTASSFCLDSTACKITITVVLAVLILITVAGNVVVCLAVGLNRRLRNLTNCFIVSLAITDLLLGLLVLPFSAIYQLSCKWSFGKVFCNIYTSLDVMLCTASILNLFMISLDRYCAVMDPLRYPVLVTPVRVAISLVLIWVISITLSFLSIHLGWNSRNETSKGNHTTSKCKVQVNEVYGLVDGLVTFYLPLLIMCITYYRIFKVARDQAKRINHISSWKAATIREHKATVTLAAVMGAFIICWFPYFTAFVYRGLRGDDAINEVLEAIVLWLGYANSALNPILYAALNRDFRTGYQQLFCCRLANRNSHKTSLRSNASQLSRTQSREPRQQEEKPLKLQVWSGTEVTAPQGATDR

[13] = target: AT2 (Homo sapiens, UniProt P50052); assay: Angiotensin receptor AT2 binding; settings: [^125I]CGP 42112A, Human recombinant HEK-293 cells, read-out: CR6086 Activity at 10µM
[14] = target: NK2 (Homo sapiens, UniProt P21452); assay: Neurokinin receptor NK2 binding; settings: [^125I]NKA, Human recombinant CHO cells, read-out: CR6086 Activity at 10µM
NK2, sequence (P21452 whole entry): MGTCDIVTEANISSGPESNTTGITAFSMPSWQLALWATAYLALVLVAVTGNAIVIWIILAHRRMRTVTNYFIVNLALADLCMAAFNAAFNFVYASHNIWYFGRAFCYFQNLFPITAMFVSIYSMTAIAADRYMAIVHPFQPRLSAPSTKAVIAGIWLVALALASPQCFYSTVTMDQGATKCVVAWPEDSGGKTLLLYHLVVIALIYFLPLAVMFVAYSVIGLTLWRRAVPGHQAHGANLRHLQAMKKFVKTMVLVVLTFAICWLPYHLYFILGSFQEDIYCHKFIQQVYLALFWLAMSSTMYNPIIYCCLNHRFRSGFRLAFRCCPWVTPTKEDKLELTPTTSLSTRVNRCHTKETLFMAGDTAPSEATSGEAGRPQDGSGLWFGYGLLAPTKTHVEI

[15] = target: NK3 (Homo sapiens, UniProt P29371); assay: Neurokinin receptor NK3 binding; settings: [^3H]SR 142801, Human recombinant CHO cells, read-out: CR6086 Activity at 10µM
NK3, sequence (P29371 whole entry): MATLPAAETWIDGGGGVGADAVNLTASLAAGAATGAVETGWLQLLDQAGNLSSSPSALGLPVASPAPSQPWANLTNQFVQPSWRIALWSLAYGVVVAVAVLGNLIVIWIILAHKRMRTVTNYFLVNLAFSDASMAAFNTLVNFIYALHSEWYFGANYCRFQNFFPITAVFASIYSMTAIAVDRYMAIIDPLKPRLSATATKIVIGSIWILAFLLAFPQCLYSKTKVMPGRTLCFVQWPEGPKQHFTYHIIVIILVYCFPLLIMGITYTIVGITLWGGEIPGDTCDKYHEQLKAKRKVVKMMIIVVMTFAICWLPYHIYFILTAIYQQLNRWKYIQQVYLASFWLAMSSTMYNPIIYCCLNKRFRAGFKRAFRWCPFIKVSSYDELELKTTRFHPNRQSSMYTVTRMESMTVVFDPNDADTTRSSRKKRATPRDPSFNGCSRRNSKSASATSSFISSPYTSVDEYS

[16] = target: δ2 (DOP) (Homo sapiens, UniProt P41143); assay: Opioid receptor δ2 (DOP) binding; settings: [^3H]DADLE, Human recombinant CHO cells, read-out: CR6086 Activity at 10µM
[17] = system: BB (non-selective); assay: BB receptor (non-selective) binding; settings: [^125I][Tyr^4]bombesin, Rat cerebral cortex
[18] = target: B2 (Homo sapiens, UniProt P30411); assay: B2 receptor binding; settings: [^3H]bradykinin, Human recombinant CHO cells, read-out: CR6086 Activity at 10µM
B2, sequence (P30411 whole entry): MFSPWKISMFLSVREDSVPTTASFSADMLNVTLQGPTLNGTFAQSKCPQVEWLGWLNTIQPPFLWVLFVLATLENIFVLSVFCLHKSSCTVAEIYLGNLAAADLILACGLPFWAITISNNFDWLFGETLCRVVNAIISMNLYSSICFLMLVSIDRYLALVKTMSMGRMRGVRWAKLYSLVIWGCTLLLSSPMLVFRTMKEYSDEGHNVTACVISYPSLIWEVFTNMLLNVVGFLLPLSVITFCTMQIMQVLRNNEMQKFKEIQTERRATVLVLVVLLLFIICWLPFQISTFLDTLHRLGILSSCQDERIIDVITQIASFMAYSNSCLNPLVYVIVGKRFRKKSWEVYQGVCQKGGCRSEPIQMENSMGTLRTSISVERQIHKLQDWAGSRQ

[19] = target: CGRP (Homo sapiens, UniProt O60894+Q16602); assay: CGRP receptor binding; settings: [^125I]hCGRPα, Human recombinant CHO cells, read-out: CR6086 Activity at 10µM
[20] = target: V1a (Homo sapiens, UniProt P37288); assay: V1a receptor binding; settings: [^3H]AVP, Human recombinant CHO cells, read-out: CR6086 Activity at 10µM
[21] = system: Cl^- channel (GABA-gated); assay: Ion channel Cl- (GABA-gated) binding; settings: [^35S]TBPS, Rat cerebral cortex

Structure (SMILES): O=C([O-])c1ccc(C2(NC(=O)[C@H]3CC4(CCN3Cc3ccc(C(F)(F)F)cc3)CC4)CC2)cc1.[Na+] [CR6086, Sodium (R)-4-(1-(6-(4-(trifluoromethyl)benzyl)-6-azaspiro[2.5]octane-5-carboxamido)cyclopropyl)benzoate]
- unbound Cave ([1]; 3 mg/kg, 24-h dosing interval, single dose): 27.6 ng/mL
- unbound Cave adjusted for the accumulation ratio ([1]; 3 mg/kg, repeated doses): 32.8 ng/mL
- dose linearity of pharmacokinetics ([1]; 1–30 mg/kg oral): linear pharmacokinetics
- oral absorption ([1]; 1–30 mg/kg oral): rapidly and completely absorbed
- accumulation ratio after repeated doses ([1]; male rats): 1.19
- Cmax ([1]; 1 mg/kg): 1250 ± 67 ng/mL
- AUC ([1]; 1 mg/kg, AUC4 for the dose of 1 mg/kg): 2170 ± 338 ng·h/mL
- Tmax ([1]; 1 mg/kg): 15 min
- Cmax ([1]; 3 mg/kg): 3230 ± 173 ng/mL
- Tmax ([1]; 3 mg/kg): 15 min
- AUC ([1]; 3 mg/kg): 13700 ± 3990 ng·h/mL
- Cmax ([1]; 10 mg/kg): 14500 ± 3400 ng/mL
- Tmax ([1]; 10 mg/kg): 30 min
- AUC ([1]; 10 mg/kg): 58000 ± 6730 ng·h/mL
- Cmax ([1]; 15 mg/kg): 11900 ± 2040 ng/mL
- Tmax ([1]; 15 mg/kg): 30 min
- AUC ([1]; 15 mg/kg): 61600 ± 10600 ng·h/mL
- Cmax ([1]; 30 mg/kg): 34500 ± 6400 ng/mL
- Tmax ([1]; 30 mg/kg): 60 min
- AUC ([1]; 30 mg/kg): 206000 ± 46000 ng·h/mL
- fraction unbound [2]: 0.0484
- Anti-collagen II [3]: 324.91 ± 79.82 µg/mL
- inhibition at 10 µM [4]: < 20%
- inhibition at 10 µM [5]: < 20%
- CR6086 Activity at 10µM [6]: IN (IN = < 20% displacement or inhibition (all tables))
- inhibition at 10 µM [7]: < 20%
- inhibition at 10 µM [8]: < 20%
- inhibition at 10 µM [9]: < 20%
- inhibition at 10 µM [10]: < 20%
- inhibition at 10 µM [11]: < 20%
- inhibition at 10 µM [12]: < 20%
- inhibition at 10 µM [13]: < 20%
- inhibition at 10 µM [14]: < 20%
- inhibition at 10 µM [15]: < 20%
- inhibition at 10 µM [16]: < 20%
- CR6086 Activity at 10µM [17]: IN (IN = < 20% displacement or inhibition (all tables))
- inhibition at 10 µM [18]: < 20%
- inhibition at 10 µM [19]: < 20%
- inhibition at 10 µM [20]: < 20%
- CR6086 Activity at 10µM [21]: IN (IN = < 20% displacement or inhibition (all tables))
